Activity calls are given as the source filed them. No cut-off for these calls is given here.
Columns and labels:
[1] = system: RAW264.7; assay: Inhibition of LPS-stimulated ROS production in mouse RAW264.7 cells preincubated for 1 hr followed by LPS stimulation after 24 hrs by CMH2DCFDA probe-based fluorescence assay
[2] = system: RAW264.7; assay: Cytotoxicity against mouse RAW264.7 cells at 10 uM after 24 hrs by MTS assay; type: cell-based; conditions: raw264.7, 24 h
[3] = Cytotoxicity against mouse RAW264.7 cells assessed as cell viability at 10 uM after 24 hrs by MTS assay relative to control; type: cell-based; conditions: read-out: Activity
[4] = species on record: Mus musculus; assay: Inhibition of LPS-stimulated NADPH oxidase activation in mouse RAW264.7 cells assessed as decrease in superoxide formation at 1 uM using NADPH as substrate preincubated for 1 hr followed by LPS stimulation for 24 hrs and subsequent substrate addition after 30 mins by lucigenin-based chemiluminescence assay; type: cell-based

| SMILES | IC50 [1] [µM] | Activity [2] | viability at 24 h, 10 µM [3] [%] | inhibition [4] |
| --- | --- | --- | --- | --- |
| O=C1/C(=C/c2cccc(Br)c2)Cc2ccc(O)cc21 | 3.9 | Non-Toxic |  |  |
| O=C1/C(=C/c2cccc(F)c2)Cc2cccc(O)c21 | 5.61 | Non-Toxic |  |  |
| O=C1/C(=C/c2ccccc2C(F)(F)F)Cc2cc(O)ccc21 | > 10 | Non-Toxic |  |  |
| O=C1/C(=C/c2cccc(C(F)(F)F)c2)Cc2cc(O)ccc21 | > 10 | Non-Toxic |  |  |
| O=C1/C(=C/c2cccc(OC(F)(F)F)c2)Cc2cccc(O)c21 | 4.62 | Non-Toxic |  |  |
| O=C1/C(=C/c2ccccc2F)Cc2c(O)cccc21 | > 10 | Non-Toxic |  |  |
| O=C1/C(=C/c2ccccc2Br)Cc2cc(O)ccc21 | 8.18 | Non-Toxic |  |  |
| O=C1/C(=C/c2ccccc2Br)Cc2ccc(O)cc21 | 4 | Non-Toxic |  |  |
| O=C1/C(=C/c2ccc(Br)cc2)Cc2c(O)cccc21 | > 10 | Non-Toxic |  |  |
| O=C1/C(=C/c2ccccc2Br)Cc2ccccc21 | > 10 | Non-Toxic |  |  |
| O=C1/C(=C/c2ccccc2F)Cc2cc(O)ccc21 | > 10 | Non-Toxic |  |  |
| O=C1/C(=C/c2cccc(F)c2)Cc2cc(O)ccc21 | > 10 | Non-Toxic |  |  |
| O=C1/C(=C/c2ccc(F)cc2)Cc2c(O)cccc21 | > 10 | Non-Toxic |  |  |
| O=C1/C(=C/c2ccc(OC(F)(F)F)cc2)Cc2cccc(O)c21 | 3.15 | Non-Toxic |  |  |
| O=C1/C(=C/c2cccc(F)c2)Cc2ccc(O)cc21 | > 10 | Non-Toxic |  |  |
| O=C1/C(=C/c2ccc(F)cc2)Cc2ccc(O)cc21 | > 10 | Non-Toxic |  |  |
| O=C1/C(=C/c2cccc(Br)c2)Cc2c(O)cccc21 | > 10 | Non-Toxic |  |  |
| O=C1/C(=C/c2ccc(F)cc2)Cc2cccc(O)c21 | 5.06 | Non-Toxic |  |  |
| O=C1/C(=C/c2cccc(F)c2)Cc2c(O)cccc21 | > 10 | Non-Toxic |  |  |
| O=C1/C(=C/c2ccccc2F)Cc2ccc(O)cc21 | > 10 | Non-Toxic |  |  |
| O=C1/C(=C/c2ccc(C(F)(F)F)cc2)Cc2cc(O)ccc21 | 5.55 | Non-Toxic |  |  |

| SMILES | IC50 [1] [µM] | Activity [2] | viability at 24 h, 10 µM [3] [%] | inhibition [4] |
| --- | --- | --- | --- | --- |
| O=C1/C(=C/c2ccccc2F)Cc2cccc(O)c21 | 3.82 | Non-Toxic |  |  |
| O=C1/C(=C/c2ccccc2OC(F)(F)F)Cc2cc(O)ccc21 | 3.38 | Non-Toxic |  |  |
| O=C1/C(=C/c2cccc(Br)c2)Cc2cc(O)ccc21 | 4.05 | Non-Toxic |  |  |
| O=C1/C(=C/c2ccc(Br)cc2)Cc2cccc(O)c21 | > 10 | Non-Toxic |  |  |
| O=C1/C(=C/c2cccc(OC(F)(F)F)c2)Cc2c(O)cccc21 | > 10 | Non-Toxic |  |  |
| O=C1/C(=C/c2ccc(C(F)(F)F)cc2)Cc2c(O)cccc21 | > 10 | Non-Toxic |  |  |
| O=C1/C(=C/c2ccc(Br)cc2)Cc2cc(O)ccc21 | 6.05 | Non-Toxic |  |  |
| O=C1/C(=C/c2ccccc2)Cc2ccccc21 | > 10 |  | < 90 |  |
| O=C1/C(=C/c2cccc(Br)c2)Cc2ccccc21 | > 10 | Non-Toxic |  |  |
| O=C1/C(=C/c2ccccc2Br)Cc2c(O)cccc21 | > 10 | Non-Toxic |  |  |
| O=C1/C(=C/c2ccccc2OC(F)(F)F)Cc2ccccc21 | 7.27 | Non-Toxic |  |  |
| O=C1/C(=C/c2ccccc2OC(F)(F)F)Cc2c(O)cccc21 | > 10 | Non-Toxic |  |  |
| O=C1/C(=C/c2ccccc2OC(F)(F)F)Cc2cccc(O)c21 | 3.25 | Non-Toxic |  |  |
| O=C1/C(=C/c2cccc(C(F)(F)F)c2)Cc2ccc(O)cc21 | 4.55 | Non-Toxic |  |  |
| O=C1/C(=C/c2ccccc2C(F)(F)F)Cc2cccc(O)c21 | 1.94 | Non-Toxic |  |  |
| O=C1/C(=C/c2ccc(C(F)(F)F)cc2)Cc2ccccc21 | > 10 | Non-Toxic |  |  |
| O=C1/C(=C/c2cccc(Br)c2)Cc2cccc(O)c21 | > 10 | Non-Toxic |  |  |
| O=C1/C(=C/c2ccccc2F)Cc2ccccc21 | > 10 | Non-Toxic |  |  |
| O=C1/C(=C/c2ccc(Br)cc2)Cc2ccc(O)cc21 | 4.27 |  | < 90 |  |
| O=C1/C(=C/c2ccc(OC(F)(F)F)cc2)Cc2c(O)cccc21 | > 10 | Non-Toxic |  |  |
| O=C1/C(=C/c2ccccc2C(F)(F)F)Cc2c(O)cccc21 | > 10 | Non-Toxic |  |  |

| SMILES | IC50 [1] [µM] | Activity [2] | viability at 24 h, 10 µM [3] [%] | inhibition [4] |
| --- | --- | --- | --- | --- |
| O=C1/C(=C/c2ccc(F)cc2)Cc2ccccc21 | > 10 | Non-Toxic |  |  |
| O=C1/C(=C/c2cccc(OC(F)(F)F)c2)Cc2ccccc21 | > 10 | Non-Toxic |  |  |
| O=C1/C(=C/c2cccc(C(F)(F)F)c2)Cc2cccc(O)c21 | > 10 | Non-Toxic |  |  |
| O=C1/C(=C/c2ccccc2C(F)(F)F)Cc2ccc(O)cc21 | 2.61 | Non-Toxic |  |  |
| O=C1/C(=C/c2ccccc2C(F)(F)F)Cc2ccccc21 | > 10 | Non-Toxic |  |  |
| O=C1/C(=C/c2ccc(Br)cc2)Cc2ccccc21 | > 10 | Non-Toxic |  |  |
| O=C1/C(=C/c2cccc(OC(F)(F)F)c2)Cc2cc(O)ccc21 | 8.01 | Non-Toxic |  |  |
| O=C1/C(=C/c2ccc(F)cc2)Cc2cc(O)ccc21 | > 10 | Non-Toxic |  |  |
| O=C1/C(=C/c2cccc(OC(F)(F)F)c2)Cc2ccc(O)cc21 | > 10 | Non-Toxic |  |  |
| O=C1/C(=C/c2ccccc2Br)Cc2cccc(O)c21 | > 10 | Non-Toxic |  |  |
| O=C1/C(=C/c2ccc(OC(F)(F)F)cc2)Cc2ccc(O)cc21 | > 10 | Non-Toxic |  |  |
| O=C1/C(=C/c2ccccc2OC(F)(F)F)Cc2ccc(O)cc21 | 1.33 | Non-Toxic |  | Active |
| O=C1/C(=C/c2ccc(OC(F)(F)F)cc2)Cc2cc(O)ccc21 | > 10 | Non-Toxic |  |  |
| O=C1/C(=C/c2cccc(C(F)(F)F)c2)Cc2ccccc21 | > 10 | Non-Toxic |  |  |
| O=C1/C(=C/c2cccc(F)c2)Cc2ccccc21 | > 10 | Non-Toxic |  |  |
| O=C1/C(=C/c2ccc(OC(F)(F)F)cc2)Cc2ccccc21 | > 10 | Non-Toxic |  |  |
| O=C1/C(=C/c2cccc(C(F)(F)F)c2)Cc2c(O)cccc21 | > 10 | Non-Toxic |  |  |
| O=C1/C(=C/c2ccc(C(F)(F)F)cc2)Cc2ccc(O)cc21 | > 10 | Non-Toxic |  |  |
| O=C1/C(=C/c2ccc(C(F)(F)F)cc2)Cc2cccc(O)c21 | 3.89 | Non-Toxic |  |  |

Reference: ChEMBL document CHEMBL4033626, “Design, synthesis, and structure-activity relationship study of halogen containing 2-benzylidene-1-indanone derivatives for inhibition of LPS-stimulated ROS production in RAW 264.7 macrophages” (Eur J Med Chem, 2017)
